Results reported in PMC12007089, “Applying Isothermal Titration Calorimetry and Saturation Transfer Difference-NMR to Study the Mode of Interaction of Flavan-3-ols with α-Amylase to Understand Their Impact on Starch Hydrolysis” (Journal of Agricultural and Food Chemistry, 2025).
“Also recorded” adds a separate entry of the source. Where two headings read alike, the source gives them in different places.

Tests used:
[1] = target: T1, porcine pancreatic α-amylase (Sus scrofa, UniProt P00690); experiment: Interaction studies by isothermal titration calorimetry (ITC); format: binding
T1 sequence (P00690 16-511): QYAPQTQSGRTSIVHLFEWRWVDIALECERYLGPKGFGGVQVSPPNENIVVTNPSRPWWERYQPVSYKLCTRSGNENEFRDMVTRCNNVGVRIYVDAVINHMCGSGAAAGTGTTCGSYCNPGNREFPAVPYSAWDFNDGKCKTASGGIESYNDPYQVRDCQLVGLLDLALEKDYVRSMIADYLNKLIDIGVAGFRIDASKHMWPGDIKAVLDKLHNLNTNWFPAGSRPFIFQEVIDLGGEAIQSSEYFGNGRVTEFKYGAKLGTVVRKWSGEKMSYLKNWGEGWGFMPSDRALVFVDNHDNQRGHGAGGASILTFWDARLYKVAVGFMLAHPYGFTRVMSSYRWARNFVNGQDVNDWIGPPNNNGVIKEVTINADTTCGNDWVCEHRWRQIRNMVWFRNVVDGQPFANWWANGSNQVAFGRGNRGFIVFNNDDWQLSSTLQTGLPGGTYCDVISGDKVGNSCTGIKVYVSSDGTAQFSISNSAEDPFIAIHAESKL
Protocol: Isothermal titration calorimetry was performed using an Affinity ITC LV with a cell volume of 182 μL (TA Instruments, Eschborn, Germany). Interaction experiments were recorded at 298 K with 0.1 mM rebuffered α-amylase in the sample cell and 4 mM flavan-3-ols in the injection syringe. For each ligand, experiments were performed with 25 injections of 3 μL and a spacing of 200 s between injections. Experiments were carried out in duplicates. Additional measurements were conducted in buffer to ensure that any mixing effects were negligible and that the observed heat development was solely attributed to the interaction studied (S4). In particular, at higher phenolic concentrations, endothermic peaks were observed, arising from the dilution effect.
The data analysis for the interaction studies was conducted using software NanoAnalyze, with manual integration of the peaks. To correct the data for noninteraction-related heats, the mean heat released during the final three injections was subtracted as a constant blank. This procedure is an effective estimation strategy that minimizes errors during the fitting process, provided that the protein is fully saturated.[35] The data were fitted using the “independent” model. To prevent overparametrization, n was set to 1, while Ka and ΔH were maintained as variables, as recommended for low-affinity binding.[35],[36] The stability of the ligand at room temperature was ensured by monitoring the concentrations prior to and following the experiment (S5).

[2] = target: T1, porcine pancreatic α-amylase; experiment: Saturation transfer difference (STD)-NMR interaction study; format: binding; details: for saturation protein–ligand aliph., corrected by a blank / saturation protein–ligand arom., corrected by a blank / saturation aliph. / saturation arom.: 10 μM α-amylase, 1 mM ligand, 298 K; for saturation protein–ligand arom., corrected by a blank: catechol ring protons; for saturation aliph. / saturation arom.: head prints 'blank', values are protein–ligand not corrected by a blank; for ratio aliph.: share of aliphatic proton saturation; for ratio arom.: share of aromatic proton saturation
Text: STD-NMR parameters were optimized based on the Bruker standard pulse sequence stddiffgp19.3 using a protein and ligand blank sample. The irradiation frequency (FQ2), saturation time (D20), saturation pulse selectivity (SPW9), and power of the saturation pulse (P42) were varied to achieve maximum selective protein saturation (S2). The best saturation of the α-amylase, with 60%, was obtained with FQ2 = 0.5 ppm, D20 = 3 s, SPW9 = 35 dB, and P42 = 50 ms. The pseudo-2D experiment allows simultaneous acquisition of the on-resonance spectrum (with selective protein saturation) and the off-resonance spectrum (without protein saturation). The subtraction of both FIDs yields the STD-NMR spectrum (S3). The off-resonance spectrum serves as a reference spectrum for the determination of ligand saturation by intensity comparison with the STD-NMR spectrum. The protein blank sample contained 10 μM α-amylase, and the ligand blank was acquired with 1.1 mM flavan-3-ol in 0.1 M phosphate buffer/0.04 M NaCl (D2O/H2O, 90/10, v/v). Interaction studies were performed with 10 μM α-amylase and 1 mM (ligand). The software package TopSpin 3.2 of Bruker BioSpin was used for data acquisition and processing.

[3] = target: T1, porcine pancreatic α-amylase; experiment: CD spectroscopy, change in secondary structure of α-amylase; details: for impact on the secondary structure of α-amylase: 90 μM α-amylase, 600 μM flavan-3-ol; for α-helix / β-turn / β-sheet / random coil: α-amylase + polyphenol, 90 µM α-amylase, 600 µM polyphenol; for α-helix: α-amylase alone 8; for β-turn: α-amylase alone 12; for β-sheet: α-amylase alone 32; for random coil: α-amylase alone 48
Protocol: CD spectra were recorded in the range of 240–190 nm with a bandwidth of 1 nm on a Jasco J-815 CD spectrometer equipped with a Peltier unit from Jasco PTC-4238 and a temperature control (F250, Julabo). For CD experiments, 20 μL respective dilutions of the stock solutions for α-amylase, EC, and PC B2 or mixtures of α-amylase and flavan-3-ol, obtained from the ITC cell after interactions experiments (see Section 2.7; 90 μM α-amylase and 600 μM EC/PC B2), were diluted with 60 μL of 0.2 M KCl and filled bubble-free into a cuvette with a light path of 0.1 mm (Hellma Analytics). At 273 K, 40 independent spectra were accumulated in a continuous scanning mode and a speed of 100 nm/min without baseline correction. Data analysis was performed in Excel according to Kaeswurm et al.[34]

α-amylase [4] = system: α-amylase; design: method as in PMID 21495725; details: cited from earlier work
α-amylase [5] = system: α-amylase; design: method as in PMID 27132823; details: cited from earlier work
α-amylase [6] = target: α-amylase; design: method as in PMID 31496243; details: substrate Gal-G2-CNP, UV-based, cited from earlier work
[7] = 0.1 mM α-amylase, 4 mM flavan-3-ol, phosphate buffer, 298 K, n set to 1, read-out: Kd
[8] = phosphate buffer, 298 K, n set to 1
[9] = 0.1 mM α-amylase, 4 mM flavan-3-ol, phosphate buffer, 298 K, n set to 1
[10] = ITC, values as restated in the discussion

saturation protein–ligand aliph., corrected by a blank [2] [%]	saturation protein–ligand arom., corrected by a blank [2] [%]	saturation aliph. [2] [%]	saturation arom. [2] [%]	ratio aliph. [2]	ratio arom. [2]	Kd [1, 7] [µM]	ΔG [1, 8] [kcal/mol]	ΔH [1, 8] [kcal/mol]	ΔS [1, 8] [J/mol·K]	Ka [1, 9]	Ka [1, 10] [M^–1]	Structure (SMILES)	impact on the secondary structure of α-amylase [3]	α-helix [3] [%]	β-turn [3] [%]	β-sheet [3] [%]	random coil [3] [%]	other results
6	9	6	9	40	60	1100 ± 100	-4.06 ± 0.048	-1.9 ± 0.096	31±1	0.9±0.1 10^3 M^-1	900	Oc1cc(O)c2c(c1)O[C@H](c1ccc(O)c(O)c1)[C@H](O)[C@H]2c1c(O)cc(O)c2c1O[C@H](c1ccc(O)c(O)c1)[C@H](O)C2 [PC B2, procyanidin B2]	No significant impact; also recorded: did not induce significant changes	14	15	23	48	–
11	14	11	14	44	56	900	-4.06 ± 0.024	-5.26 ± 0.359	-16±5	1.1±0.1 10^3 M^-1	1100	Oc1cc(O)c2c(c1)O[C@H](c1ccc(O)c(O)c1)[C@H](O)[C@H]2c1c(O)cc(O)c2c1O[C@H](c1ccc(O)c(O)c1)[C@@H](O)C2 [PC B1, procyanidin B1]	–	–	–	–	–	–

Further lines, the molecule ahead of its results:

Structure (SMILES)	saturation protein–ligand aliph., corrected by a blank [2] [%]	saturation protein–ligand arom., corrected by a blank [2] [%]	saturation aliph. [2] [%]	saturation arom. [2] [%]	ratio aliph. [2]	ratio arom. [2]	Kd [1, 7] [µM]	ΔG [1, 8] [kcal/mol]	ΔH [1, 8] [kcal/mol]	ΔS [1, 8] [J/mol·K]	Ka [1, 9]	Ka [1, 10] [M^–1]	impact on the secondary structure of α-amylase [3]	α-helix [3] [%]	β-turn [3] [%]	β-sheet [3] [%]	random coil [3] [%]	other results
Oc1cc(O)c2c(c1)O[C@H](c1ccc(O)c(O)c1)[C@H](O)[C@H]2c1c(O)cc(O)c2c1O[C@H](c1ccc(O)c(O)c1)[C@H](O)[C@H]2c1c(O)cc(O)c2c1O[C@H](c1ccc(O)c(O)c1)[C@H](O)C2 [PC C1, procyanidin C1]	7	11	7	11	39	61	–	–	–	–	–	–	–	–	–	–	–	interaction with α-amylase observed by ITC ([1]; 0.1 mM α-amylase, 4 mM ligand, 298 K): no observable interaction; observation in the STD-NMR sample with α-amylase [2]: visible precipitation; PC C1 concentration in solution after precipitation ([2]; after STD experiment, 1 mM PC C1, 10 μM α-amylase): 0.35 mM; decrease of PC C1 in solution after precipitation ([2]; integrals of aromatic protons, off-resonance spectrum vs pure ligand blank, 1 mM PC C1, 10 μM α-amylase): roughly 65%
Oc1cc(O)c2c(c1)O[C@H](c1ccc(O)c(O)c1)[C@H](O)C2 [EC, (−)-Epicatechin]	6	21	6	21	21	79	300	-4.78 ± 0.048	-17.2 ± 1.67	-173±24	–	–	No significant impact; also recorded: did not induce significant changes	14	15	23	48	Kd ([1]; Ka, 0.1 mM α-amylase, 4 mM flavan-3-ol, phosphate buffer, 298 K, n set to 1): 263 µM; reduction / decrease in α-amylase activity (α-amylase [4]): 10%; inhibition of α-amylase compared to other phenolic compounds and the apple extract (α-amylase [5]): weakest inhibition; Ki (α-amylase [6]; read-out: Kic): 88 ± 37 µM; Ki (α-amylase [6]; read-out: Kiu): 231 ± 45 µM
Oc1cc(O)c2c(c1)O[C@H](c1ccc(O)c(O)c1)[C@@H](O)C2 [CAT, (+)-Catechin]	3	11	5	13	21	79	500	-4.54 ± 0	-12.7 ± 1.1	–	2.1±0.0 10^3 M^-1	–	–	–	–	–	–	–
